Results published in patent US9796741B2 (Achillion Pharmaceuticals, Inc., priority 2014, dated 2017).

Target: Human factor D (Homo sapiens (Human), UniProt P00746)
Test: Human Factor D Assay
Type: biochemical
Conditions: human factor D 80 nM, substrate Z-L-Lys-SBzl, DTNB
Experimental: Human factor D (purified from human serum, Complement Technology, Inc.) at 80 nM final concentration is incubated with test compound at various concentrations for 5 minutes at room temperature in 50 mM Tris, 1M NaCl, pH 7.5. A synthetic substrate Z-L-Lys-SBzl and DTNB (Ellman's reagent) are added to final concentrations of 100 μM each. The increase in color is recorded at OD405 nm in a microplate in kinetic mode over 30 minutes with 30 second time points in a spectrofluorimeter. IC50 values are calculated by non-linear regression from the percentage of inhibition of complement factor D activity as a function of test compound concentration.

Chain of Human factor D (P00746 26-253): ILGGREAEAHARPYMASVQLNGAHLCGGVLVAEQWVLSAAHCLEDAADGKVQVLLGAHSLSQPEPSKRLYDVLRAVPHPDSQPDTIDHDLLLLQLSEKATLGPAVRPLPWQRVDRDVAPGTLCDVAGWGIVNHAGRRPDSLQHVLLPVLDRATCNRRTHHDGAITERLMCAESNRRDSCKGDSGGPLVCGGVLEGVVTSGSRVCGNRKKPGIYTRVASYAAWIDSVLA

| Structure (SMILES) | IC50 [nM] |
| --- | --- |
| CC(=O)c1cn(CC(=O)N2C[C@H](F)C[C@H]2C(=O)Nc2cncc(Cl)c2)c2ccc(-c3ccnnc3)cc12 [Compound 66, (2S,4R)-1-(2-(3-acetyl-5-(pyridazin-4-yl)-1H-indol-1-yl)acetyl)-N-(5-chloropyridin-3-yl)-4-fluoropyrrolidine-2-carboxamide] | < 1000 |
| CC(=O)Nc1ncc(-c2ccc3c(c2)c(C(C)=O)cn3CC(=O)N2C[C@H](F)C[C@H]2C(=O)Nc2cccc(-c3ccccc3Cl)c2F)cn1 [Compound 138, (2S,4R)-1-(2-(5-(2-acetamidopyrimidin-5-yl)-3-acetyl-1H-indol-1-yl)acetyl)-N-(2′-chloro-2-fluorobiphenyl-3-yl)-4-fluoropyrrolidine-2-carboxamide] | < 1000 |
| CC(=O)c1cn(CC(=O)N2[C@@H]3C[C@@H]3C[C@H]2C(=O)Nc2cccc(-c3ccccc3Cl)c2F)c2ccc(-c3cnc(C)nc3)cc12 [Compound 133, (1R,3S,5R)-2-(2-(3-acetyl-5-(2-methylpyrimidin-5-yl)-1H-indol-1-yl)acetyl)-N-(2′-chloro-2-fluorobiphenyl-3-yl)-2-azabicyclo[3.1.0] hexane-3-carboxamide] | < 1000 |
| CC(=O)c1cn(CC(=O)N2C[C@H](F)C[C@H]2C(=O)Nc2cccc(-c3ccccc3Cl)c2F)c2ccc(N3CCN(c4ncc(F)cn4)CC3)cc12 [Compound 32, (2S,4R)-1-(2-(3-acetyl-5-(4-(5-fluoropyrimidin-2-yl)piperazin-1-yl)-1H-indol-1-yl)acetyl)-N-(2′-chloro-2-fluorobiphenyl-3-yl)-4-fluoropyrrolidine-2-carboxamide] | < 1000 |
| NC(=O)c1nn(CC(=O)N2C[C@H](F)C[C@H]2C(=O)Nc2cccc(-c3ccccc3Cl)c2F)c2ccc(-c3cnc(N4CCCC4)nc3)cc12 [Compound 10] | < 1000 |
| CC(=O)c1cn(CC(=O)N2C[C@H](F)C[C@H]2C(=O)N[C@H]2CCC[C@@H]2OCc2ccccc2)c2ccc(-c3ccnnc3)cc12 [Compound 77, (2S,4R)-1-(2-(3-acetyl-5-(pyridazin-4-yl)-1H-indol-1-yl)acetyl)-N-((1S,2S)-2-(benzyloxy)cyclopentyl)-4-fluoropyrrolidine-2-carboxamide] | > 10000 |
| CC(=O)c1cn(CC(=O)N2C[C@H](F)C[C@H]2C(=O)Nc2cccc(Cl)c2C(F)(F)F)c2ccc(-c3ccnnc3)cc12 [Compound 126, (2S,4R)-1-(2-(3-acetyl-5-(pyridazin-4-yl)-1H-indol-1-yl)acetyl)-N-(3-chloro-2-(trifluoromethyl)phenyl)-4-fluoropyrrolidine-2-carboxamide] | > 10000 |
| CC(=O)c1cn(CC(=O)N2C[C@H](F)C[C@H]2C(=O)Nc2cccc(-c3ccccc3Cl)c2F)c2ccc(-c3ccnnc3)cc12 [Compound 20, (2S,4R)-1-(2-(3-Acetyl-5-(pryridazin-4-yl)-1H-indol-1-yl)acetyl)-N-(2′-chloro-2-fluoro-[1,1′-biphenyl]-3-yl)-4-fluoropyrrolidine-2-carboxamide] | < 1000 |
| CC(=O)c1cn(CC(=O)N2C[C@H](F)C[C@H]2C(=O)Nc2cccc(O)n2)c2ccc(-c3ccnnc3)cc12 [Compound 144, (2S,4R)-1-(2-(3-acetyl-5-(pyridazin-4-yl)-1H-indol-1-yl)acetyl)-4-fluoro-N-(6-hydroxypyridin-2-yl)pyrrolidine-2-carboxamide] | > 10000 |
| CC(=O)c1cn(CC(=O)N2C[C@H](F)C[C@H]2C(=O)Nc2cncc(Cl)n2)c2ccc(-c3ccnnc3)cc12 [Compound 88, (2S,4R)-1-(2-(3-acetyl-5-(pyridazin-4-yl)-1H-indol-1-yl)acetyl)-N-(6-chloropyrazin-2-yl)-4-fluoropyrrolidine-2-carboxamide] | < 1000 |
| NC(=O)c1nn(CC(=O)N2C[C@H](F)C[C@H]2C(=O)Nc2cccc(-c3ccccc3Cl)c2F)c2ccc(-c3ccc(F)nc3)cc12 [Compound 12, 1-(2-((2S,4R)-2-((2′-Chloro-2-fluoro-[1,1′-biphenyl]-3-yl)carbamoyl)-4-fluoropyrrolidin-1-yl)-2-oxoethyl)-5-(6-fluoropyridin-3-yl)-1H-indazole-3-carboxamide] | < 1000 |
| Cn1cc(N2CCCC(NC(=O)[C@@H]3C[C@@H](F)CN3C(=O)Cn3nc(C(N)=O)c4cc(-c5ccnnc5)ccc43)C2)cn1 (stereo partly drawn) [Compound 141, 1-(2-((2S,4R)-4-fluoro-2-(1-(1-methyl-1H-pyrazol-4-yl)piperidin-3-ylcarbamoyl)pyrrolidin-1-yl)-2-oxoethyl)-5-(pyridazin-4-yl)-1H-indazole-3-carboxamide] | > 10000 |
| NC(=O)c1nn(CC(=O)N2C[C@H](F)C[C@H]2C(=O)Nc2cccc(Cl)c2-n2cncn2)c2ccc(-c3ccnnc3)cc12 [Compound 96, 1-(2-((2S,4R)-2-(3-chloro-2-(1H-1,2,4-triazol-1-yl)phenylcarbamoyl)-4-fluoropyrrolidin-1-yl)-2-oxoethyl)-5-(pyridazin-4-yl)-1H-indazole-3-carboxamide] | > 10000 |
| CC(=O)c1cn(CC(=O)N2C[C@H](F)C[C@H]2C(=O)Nc2cccc(-c3ccccc3Cl)c2F)c2ccc(-c3cnc(N4CCCC4)nc3)cc12 [Compound 26, (2S,4R)-1-(2-(3-acetyl-5-(2-(pyrrolidin-1-yl)pyrimidin-5-yl)-1H-indol-1-yl)acetyl)-N-(2′-chloro-2-fluorobiphenyl-3-yl)-4-fluoropyrrolidine-2-carboxamide] | < 1000 |
| NC(=O)c1nn(CC(=O)N2C[C@H](F)C[C@H]2C(=O)Nc2cncc(Br)n2)c2ccc(-c3ccnnc3)cc12 [Compound 128, 1-(2-((2S,4R)-2-(6-bromopyrazin-2-ylcarbamoyl)-4-fluoropyrrolidin-1-yl)-2-oxoethyl)-5-(pyridazin-4-yl)-1H-indazole-3-carboxamide] | < 1000 |
| COCCNc1ncc(-c2ccc3c(c2)c(C(C)=O)cn3CC(=O)N2C[C@H](F)C[C@H]2C(=O)Nc2cccc(-c3ccccc3Cl)c2F)cn1 [Compound 187, (2S,4R)-1-(2-(3-acetyl-5-(2-(2-methoxyethylamino)pyrimidin-5-yl)-1H-indol-1-yl)acetyl)-N-(2′-chloro-2-fluorobiphenyl-3-yl)-4-fluoropyrrolidine-2-carboxamide] | < 1000 |
| COc1ncc(-c2ccc3c(c2)c(C(C)=O)cn3CC(=O)N2[C@@H]3C[C@@H]3C[C@H]2C(=O)Nc2cccc(-c3ccccc3Cl)c2F)cn1 [Compound 80, (1R,3S,5R)-2-(2-(3-acetyl-5-(2-methoxypyrimidin-5-yl)-1H-indol-1-yl)acetyl)-N-(2′-chloro-2-fluorobiphenyl-3-yl)-2-azabicyclo[3.1.0] hexane-3-carboxamide] | < 1000 |
| CC(=O)c1cn(CC(=O)N2C[C@H](F)C[C@H]2C(=O)Nc2ccc3c(c2)OC(C)(C)C3)c2ccc(-c3ccnnc3)cc12 [Compound 75, (2S,4R)-1-(2-(3-acetyl-5-(pyridazin-4-yl)-1H-indol-1-yl)acetyl)-N-(2,2-dimethyl-2,3-dihydrobenzofuran-6-yl)-4-fluoropyrrolidine-2-carboxamide] | < 1000 |
| COc1ncc(-c2ccc3c(c2)c(C(C)=O)cn3CC(=O)N2C[C@H](F)C[C@H]2C(=O)NCc2cccc(Cl)c2F)cn1 [Compound 136, (2S,4R)-1-(2-(3-acetyl-5-(2-methoxypyrimidin-5-yl)-1H-indol-1-yl)acetyl)-N-(3-chloro-2-fluorobenzyl)-4-fluoropyrrolidine-2-carboxamide] | < 1000 |
| NC(=O)c1nn(CC(=O)N2[C@@H]3C[C@@H]3C[C@H]2C(=O)Nc2cccc(OC(F)(F)F)c2F)c2ccc(-c3cncnc3)cc12 [Compound 8, 1-(2-((1R,3S,5R)-3-(2-fluoro-3-(trifluoromethoxy)phenylcarbamoyl)-2-azabicyclo[3.1.0]hexan-2-yl)-2-oxoethyl)-5-(pyrimidin-5-yl)-1H-indazole-3-carboxamide] | < 1000 |
| NC(=O)c1nn(CC(=O)N2C[C@H](F)C[C@H]2C(=O)Nc2ccc3cn[nH]c3c2)c2ccc(-c3ccnnc3)cc12 [Compound 86, 1-(2-((2S,4R)-2-(1H-indazol-6-ylcarbamoyl)-4-fluoropyrrolidin-1-yl)-2-oxoethyl)-5-(pyridazin-4-yl)-1H-indazole-3-carboxamide] | > 10000 |
| NC(=O)c1nn(CC(=O)N2C[C@H](F)C[C@H]2C(=O)Nc2ccc(F)c(-c3nnc4n3CCCCC4)c2)c2ccc(-c3ccnnc3)cc12 [Compound 91, 1-(2-((2S,4R)-4-fluoro-2-(4-fluoro-3-(6,7,8,9-tetrahydro-5H-[1,2,4]triazolo[4,3-a]azepin-3-yl)phenylcarbamoyl)pyrrolidin-1-yl)-2-oxoethyl)-5-(pyridazin-4-yl)-1H-indazole-3-carboxamide] | > 10000 |
| Cn1cnnc1-c1ccccc1NC(=O)[C@@H]1C[C@@H](F)CN1C(=O)Cn1nc(C(N)=O)c2cc(-c3ccnnc3)ccc21 [Compound 98, 1-(2-((2S,4R)-4-fluoro-2-(2-(4-methyl-4H-1,2,4-triazol-3-yl)phenylcarbamoyl)pyrrolidin-1-yl)-2-oxoethyl)-5-(pyridazin-4-yl)-1H-indazole-3-carboxamide] | > 10000 |
| CC(=O)c1cn(CC(=O)N2[C@@H]3C[C@@H]3C[C@H]2C(=O)Nc2cccc(Br)n2)c2ccc(-c3cncnc3)cc12 [Compound 17, (1R,3S,5R)-2-(2-(3-acetyl-5-(pyrimidin-5-yl)-1H-indol-1-yl)acetyl)-N-(6-bromopyridin-2-yl)-2-azabicyclo[3.1.0] hexane-3-carboxamide] | < 1000 |
| CC(=O)c1cn(CC(=O)N2C[C@@H](F)C[C@@H]2C(=O)NC2CCCN(c3ccccc3Cl)C2=O)c2ccc(-c3ccnnc3)cc12 (stereo partly drawn) [Compound 161, (2R,4S)-1-(2-(3-acetyl-5-(pyridazin-4-yl)-1H-indol-1-yl)acetyl)-N-(1-(2-chlorophenyl)-2-oxopiperidin-3-yl)-4-fluoropyrrolidine-2-carboxamide] | < 1000 |
